According to patent US9834558B2, “Substituted bridged urea analogs as sirtuin modulators” (GLAXOSMITHKLINE LLC, priority 2013, dated 2017):
Structures can show the parent of a compound that is named as a salt.

Target: T1, SIRT1 (Homo sapiens, UniProt Q96EB6)
T1 sequence (Q96EB6 1-747): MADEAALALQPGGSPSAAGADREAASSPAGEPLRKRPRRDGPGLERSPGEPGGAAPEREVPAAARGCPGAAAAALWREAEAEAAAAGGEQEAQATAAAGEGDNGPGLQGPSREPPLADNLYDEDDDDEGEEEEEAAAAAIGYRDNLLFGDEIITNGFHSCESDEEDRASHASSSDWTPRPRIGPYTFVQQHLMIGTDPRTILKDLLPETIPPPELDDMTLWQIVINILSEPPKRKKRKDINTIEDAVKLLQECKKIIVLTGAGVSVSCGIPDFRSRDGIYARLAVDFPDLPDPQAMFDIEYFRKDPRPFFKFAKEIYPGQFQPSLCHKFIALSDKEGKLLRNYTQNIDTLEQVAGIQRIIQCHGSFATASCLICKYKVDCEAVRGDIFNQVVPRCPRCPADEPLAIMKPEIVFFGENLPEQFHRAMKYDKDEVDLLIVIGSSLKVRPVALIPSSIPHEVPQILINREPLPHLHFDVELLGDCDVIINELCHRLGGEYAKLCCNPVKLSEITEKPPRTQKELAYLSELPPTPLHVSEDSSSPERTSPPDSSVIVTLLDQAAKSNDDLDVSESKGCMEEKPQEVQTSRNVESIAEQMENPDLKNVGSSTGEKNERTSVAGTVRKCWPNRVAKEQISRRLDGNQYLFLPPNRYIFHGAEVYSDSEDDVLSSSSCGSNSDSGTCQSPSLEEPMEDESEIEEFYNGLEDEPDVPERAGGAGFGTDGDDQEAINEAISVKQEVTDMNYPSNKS
Experiment: Trp mass spectrometry assay of SIRT1 activation
Assay type: biochemical
Conditions: Trp peptide assay; for TRP Activity (EC1.5): EC1.5 = concentration that results in 150% activation of SIRT1; for Emax: maximum activity relative to control (100%), read-out: TRP MAX RESP (percent maximum fold activation)
Procedure, shortened: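 N-terminal His-tagged human SIRT1 (10 nM, E. coli BL21(DE3)) with 0.5 μM Ac-RHKK(Ac)W-NH2 peptide and 120 μM βNAD+, 25 min at 25 °C in HEPES pH 7.5, formic acid stop. OAADPR or deacetylated peptide quantified by mass spectrometry; EC1.5 (50% activity increase over control) and Percent Maximum Activation reported.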

Compound	TRP Activity (EC1.5)	Emax [%]
N#Cc1ccc2c(n1)N(C(=O)Nc1cnccn1)[C@H]1CCN2C1 [(9S)-5-cyano-N-(pyrazin-2-yl)-1,6,8-triazatricyclo[7.2.1.0 {2,7}]dodeca-2(7),3,5-triene-8-carboxamide]	C (C (EC1.5>25 μM))	< 150
O=C(NC(CO)C(F)(F)F)c1ccc2c(n1)N(C(=O)Nc1ccccn1)[C@H]1CCN2C1 (stereo partly drawn) [(9S)-8-N-(pyridin-2-yl)-5-N-(1,1,1-trifluoro-3-hydroxypropan-2-yl)-1,6,8-triazatricyclo[7.2.1.0^{2,7}]dodeca-2(7),3,5-triene-5,8-dicarboxamide]	A (A (EC1.5<1 μM))	> 150
COCC(NC(=O)c1ccc2c(n1)N(C(=O)Nc1ccccn1)[C@H]1CCN2C1)C(F)(F)F (stereo partly drawn) [(9S)-8-N-(pyridin-2-yl)-5-N-(1,1,1-trifluoro-3-methoxypropan-2-yl)-1,6,8-triazatricyclo[7.2.1.0^{2,7}]dodeca-2(7),3,5-triene-5,8-dicarboxamide]	A (A (EC1.5<1 μM))	> 150
O=C(NCC(F)(F)F)c1ccc2c(n1)N(C(=O)Nc1ccccn1)[C@H]1CCN2C1 [(9S)-8-N-(pyridin-2-yl)-5-N-(2,2,2-trifluoroethyl)-1,6,8-triazatricyclo[7.2.1.0 {2,7}]dodeca-2(7),3,5-triene-5,8-dicarboxamide]	A (A (EC1.5<1 μM))	> 150
Cc1cc(-c2ccc3c(n2)N(C(=O)N2CCN(C)CC2)[C@H]2CCN3C2)ccn1 [(9S)-8-[(4-methylpiperazin-1-yl)carbonyl]-5-(2-methylpyridin-4-yl)-1,6,8-triazatricyclo[7.2.1.0 {2,7}]dodeca-2,4,6-triene]	C (C (EC1.5>25 μM))	< 150
Cc1cc(-c2ccc3c(n2)N(C(=O)N2CCO[C@H](C)C2)[C@H]2CCN3C2)ccn1 [(9S)-8-{[(2R)-2-methylmorpholin-4-yl]carbonyl}-5-(2-methylpyridin-4-yl)-1,6,8-triazatricyclo[7.2.1.0 {2,7}]dodeca-2(7),3,5-triene hydrochloride]	C (C (EC1.5>25 μM))	< 150
Cc1cc(-c2ccc3c(n2)N(C(=O)N2CCO[C@@H](C)C2)[C@H]2CCN3C2)ccn1 [(9S)-8-{[(2S)-2-methylmorpholin-4-yl]carbonyl}-5-(2-methylpyridin-4-yl)-1,6,8-triazatricyclo[7.2.1.0 {2,7}]dodeca-2(7),3,5-triene hydrochloride]	C (C (EC1.5>25 μM))	< 150
Cc1cc(NC(=O)N2c3nc(-c4ccnc(C)c4)ccc3N3CC[C@H]2C3)ccn1 [(9S)-N,5-bis(2-methylpyridin-4-yl)-1,6,8-triazatricyclo[7.2.1.0 {2,7}]dodeca-2(7),3,5-triene-8-carboxamide]	B (B (EC1.5 1-25 μM))	> 150
Cc1cc(-c2ccc3c(n2)N(C(=O)Nc2cn(C)nn2)[C@H]2CCN3C2)ccn1 [(9S)-N-(1-methyl-1H-1,2,3-triazol-4-yl)-5-(2-methylpyridin-4-yl)-1,6,8-triazatricyclo[7.2.1.0^{2,7}]dodeca-2(7),3,5-triene-8-carboxamide]	B (B (EC1.5 1-25 μM))	> 150
Cc1cc(-c2ccc3c(n2)N(C(=O)Nc2ncn(C)n2)[C@H]2CCN3C2)ccn1 [(9S)-N-(1-methyl-1H-1,2,4-triazol-3-yl)-5-(2-methylpyridin-4-yl)-1,6,8-triazatricyclo[7.2.1.0 {2,7}]dodeca-2(7),3,5-triene-8-carboxamide]	C (C (EC1.5>25 μM))	> 150
Cc1cc(-c2ccc3c(n2)N(C(=O)Nc2ccn(C)n2)[C@H]2CCN3C2)ccn1 [(9S)-N-(1-methyl-1H-pyrazol-3-yl)-5-(2-methylpyridin-4-yl)-1,6,8-triazatricyclo[7.2.1.0 {2,7}]dodeca-2,4,6-triene-8-carboxamide]	B (B (EC1.5 1-25 μM))	> 150
Cc1cc(-c2ccc3c(n2)N(C(=O)Nc2cnn(C)c2)[C@H]2CCCN3C2)ccn1 [(9S)-N-(1-methyl-1H-pyrazol-4-yl)-5-(2-methylpyridin-4-yl)-1,6,8-triazatricyclo[7.3.1.0 {2,7}]trideca-2(7),3,5-triene-8-carboxamide]	B (B (EC1.5 1-25 μM))	> 150
Cc1ccc(-c2ccc3c(n2)N(C(=O)NC2CCN(C)CC2)[C@H]2CCN3C2)cn1 [(9S)-N-(1-methylpiperidin-4-yl)-5-(6-methylpyridin-3-yl)-1,6,8-triazatricyclo[7.2.1.0^{2,7}]dodeca-2(7),3,5-triene-8-carboxamide]	C (C (EC1.5>25 μM))	< 150
Cc1cc(-c2ccc3c(n2)N(C(=O)Nc2ccc4[nH]ncc4c2)[C@H]2CCN3C2)ccn1 [(9S)-N-(1H-indazol-5-yl)-5-(2-methylpyridin-4-yl)-1,6,8-triazatricyclo[7.2.1.0 {2,7}]dodeca-2(7),3,5-triene-8-carboxamide]	A (A (EC1.5<1 μM))	> 150
Cc1ccc(-c2ccc3c(n2)N(C(=O)NCC(C)(C)C)[C@H]2CCN3C2)cn1 [(9S)-N-(2,2-dimethylpropyl)-5-(6-methylpyridin-3-yl)-1,6,8-triazatricyclo[7.2.1.0 {2,7}]dodeca-2(7),3,5-triene-8-carboxamide]	C (C (EC1.5>25 μM))	< 150
Cc1cc(-c2ccc3c(n2)N(C(=O)Nc2ccc4c(c2)OCCO4)[C@H]2CCN3C2)ccn1 [(9S)-N-(2,3-dihydro-1,4-benzodioxin-6-yl)-5-(2-methylpyridin-4-yl)-1,6,8-triazatricyclo[7.2.1.0 {2,7}]dodeca-2(7),3,5-triene-8-carboxamide]	B (B (EC1.5 1-25 μM))	> 150
Cc1cc(-c2ccc3c(n2)N(C(=O)Nc2ccc4nn(C)cc4c2)[C@H]2CCCN3C2)ccn1 [(9S)-N-(2-methyl-2H-indazol-5-yl)-5-(2-methylpyridin-4-yl)-1,6,8-triazatricyclo[7.3.1.0 {2,7}]trideca-2,4,6-triene-8-carboxamide]	A (A (EC1.5<1 μM))	> 150
Cc1cc(-c2ccc3c(n2)N(C(=O)Nc2ccc4c(c2)OCO4)[C@H]2CCN3C2)ccn1 [(9S)-N-(2H-1,3-benzodioxo1-5-yl)-5-(2-methylpyridin-4-yl)-1,6,8-triazatricyclo[7.2.1.0 {2,7}]dodeca-2(7),3,5-triene-8-carboxamide]	A (A (EC1.5<1 μM))	> 150
Cc1ccc(-c2ccc3c(n2)N(C(=O)NC2CC(F)(F)C2)[C@H]2CCN3C2)cn1 [(9S)-N-(3,3-difluorocyclobutyl)-5-(6-methylpyridin-3-yl)-1,6,8-triazatricyclo[7.2.1.0 {2,7}]dodeca-2(7),3,5-triene-8-carboxamide]	B (B (EC1.5 1-25 μM))	> 150
Cc1cc(-c2ccc3c(n2)N(C(=O)Nc2ccc4c(c2)OCCCO4)[C@H]2CCN3C2)ccn1 [(9S)-N-(3,4-dihydro-2H-1,5-benzodioxepin-7-yl)-5-(2-methylpyridin-4-yl)-1,6,8-triazatricyclo[7.2.1.0 {2,7}]dodeca-2,4,6-triene-8-carboxamide]	A (A (EC1.5<1 μM))	> 150
